Results taken from patent publication US8158106B2, “Particle immobilized coatings and uses thereof” (Surmodics, Inc., priority 2001, dated 2012).

Legend:
[1] = Entrapment of microparticles disposed on pre-irradiated photopolymer matrix spots, presence after washes; type: physicochemical; conditions: 9.9 μm silica microparticles disposed on irradiated spots, compound 2.5 mg/ml
Text: Different polymeric materials were used to immobilize microparticles on a substrate. First, different polymers were disposed and treated on a substrate to form matrices. This was followed by disposing the microparticles on the substrates which were immobilized via the matrices. Four different photoreactive polymers were used to immobilize 9.9 μm diameter silica microparticles on substrates. […] Pat. No. 5,714,360 to Swan et al., issued Feb., 3, 1998, commonly owned by the assignee of the present invention, the disclosure of which is incorporated herein in its entirety), a non-polymeric photoreactive compound, was evaluated. […] Each solution was printed with 25 gauge disposable needles (PrecisionGlide Needles, Becton Dickinson and Co., Franklin Lakes, N.J.) and an x-y programmable stage (CAMM-3, Roland Digital Group, Irvine, Calif.) onto glass microscope slides which had been functionalized with silanes, as in Example 1, and onto acrylic slides (Cadillac Plastics, Minneapolis, Minn.). This printing forms a pattern of approximately 300-400 μm diameter spots on the substrates. The patterned slides were irradiated for two minutes with ultraviolet light as detailed in Example 1. After irradiation, 500 μl of an aqueous solution of 2 mg/ml 9.9 μm diameter silica microparticles (S[…], Bangs Laboratories, Fisher, Ind.) was placed over the patterned area for one minute to allow the microparticles to associate and become entrapped in the polymer matrices. The slides were then rinsed with 0.1% v/v Tween-20 aqueous solution to remove any free microparticles. Following this, the array was washed to remove loosely bound microspheres. The array was washed three times with 1×PBS (pH 7.4) with 0.1% v/v Tween-20, and then rinsed with deionized water. […] After imaging, the arrays were incubated in a solution of 0.1M TRIS and 50 mM ethanolamine (T/E) wash buffer for 1 hour at 50° C., followed by two rinses with deionized water. The microarrays were then incubated in a solution of 4×SSC/0.1% SDS for two hours at 50° C. and rinsed in deionized water. This was the final step at which imaging was done to evaluate the respective polymers.

[2] = Printed slurries of photoreactive compound and microparticles, presence after washes; type: physicochemical; conditions: slurry of 2.5 mg/ml compound and 20 mg/ml 9.9 μm silica microspheres printed, then irradiated
Description: Slurries were prepared, each containing different polymers and microparticles. These slurries were then disposed on a substrate and treated to form matrices in which microparticles were immobilized. Different polymeric materials were used to immobilize microparticles on a substrate. Four different photoreactive polymers were used to immobilize 9.9 μm diameter silica microparticles on substrates: […] BBDQ (as described in Example 4) a non-polymeric photoreactive material was also used in this Example. […] Each mixture was printed with 25 gauge disposable needles (PrecisionGlide Needles, Becton Dickinson and Co., Franklin Lakes, N.J.) and an x-y programmable stage (CAMM-3, Roland Digital Group, Irvine, Calif.) onto glass microscope slides which had been functionalized with silanes, as detailed in Example 1 and onto acrylic slides (Cadillac Plastics, Minneapolis, Minn.). This printing forms a pattern of approximately 300-400 μm diameter spots on the substrates. The coated substrates were irradiated for two minutes with ultraviolet light as detailed in Example 1. The coated substrates were then imaged with a fluorescence microscope (Olympus BX 60, Tokyo, Japan), to ensure that patterning was successful. Following this, the coated substrate was washed to remove any loosely bound microspheres. The coated substrates were washed three times with 1×PBS (pH 7.4) with 0.1% v/v Tween-20, rinsed with deionized water. At this point, each was again imaged with the fluorescence microscope to determine microsphere loss in the various photoreactive polymer matrices. After imaging, the coated substrates were incubated in a solution of T/E wash buffer for 1 hour at 50° C., followed by two rinses with deionized water. The coated substrates were then incubated in a solution of 4×SSC/0.1% SDS for two hours at 50° C. and rinsed in deionized water.

- Presence of microparticles after PBS-Tween wash ([1]; Acrylic substrate): Some loss
- Presence of microparticles after high salt wash (4X SSC) ([1]; Acrylic substrate): Complete loss
- Presence of microparticles before washes ([1]; Acrylic substrate): Present
- Presence of microparticles after PBS-Tween wash ([1]; Glass substrate): Some loss
- Presence of microparticles after high salt wash (4X SSC) ([1]; Glass substrate): Complete loss
- Presence of microparticles before washes ([1]; Glass substrate): Present
- Presence of microparticles after PBS-Tween wash ([2]; Acrylic substrate): No loss
- Presence of microparticles after high salt wash (4X SSC) ([2]; Acrylic substrate): Complete loss
- Presence of microparticles before washes ([2]; Acrylic substrate): Present
- Presence of microparticles after PBS-Tween wash ([2]; Glass substrate): No loss
- Presence of microparticles after high salt wash (4X SSC) ([2]; Glass substrate): Complete loss
- Presence of microparticles before washes ([2]; Glass substrate): Present
Compound: C[N+](C)(CC[N+](C)(C)Cc1ccc(C(=O)c2ccccc2)cc1)Cc1ccc(C(=O)c2ccccc2)cc1.[Br-].[Br-] [BBDQ, ethylene(4-benzoylbenzyldimethylammonium)dibromide]
